Test results: US12583816B2, “Lipids for lipid nanoparticle delivery of active agents” (ACUITAS THERAPEUTICS, INC., priority 2018, dated 2026)

What was measured:
[1] = test system: luciferase expression in the liver; assay: In vivo luciferase mRNA expression rodent model (lipid nanoparticle formulations, liver luciferase); set-up: species or system mice; settings: LNP with FLuc mRNA, PEG-DMA; 0.5 mg mRNA/kg, tail vein injection, liver 4 hours after administration
Experimental: Lipid nanoparticles are prepared and tested according to the general procedures described in PCT Pub. Nos. WO 2015/199952 and WO 2017/004143, the full disclosures of which are incorporated herein by reference. Briefly, cationic lipid, DSPC, cholesterol and PEG-lipid are solubilized in ethanol at a molar ratio of about 50:10:38.5:1.5 or about 47.5:10:40.8:1.7. Lipid nanoparticles (LNP) are prepared at a total lipid to mRNA weight ratio of approximately 10:1 to 30:1. The mRNA is diluted to 0.2 mg/mL in 10 to 50 mM citrate or acetate buffer, pH 4. Syringe pumps are used to mix the ethanolic lipid solution with the mRNA aqueous solution at a ratio of about 1:5 to 1:3 (vol/vol) with total flow rates above 15 mL/min. The ethanol is then removed and the external buffer replaced with PBS by dialysis. Finally, the lipid nanoparticles are filtered through a 0.2 µm pore sterile filter. Lipid nanoparticle particle size is approximately 55-95 nm diameter, and in some instances approximately 70-90 nm diameter as determined by quasi-elastic light scattering using a Malvern Zetasizer Nano ZS (Malvern, UK).
Studies are performed in 6-8 week old female C57BL/6 mice (Charles River) or 8-10 week old CD-1 (Harlan) mice (Charles River) according to guidelines established by an institutional animal care committee (ACC) and the Canadian Council on Animal Care (CCAC). Varying doses of mRNA-lipid nanoparticle are systemically administered by tail vein injection and animals euthanized at a specific time point (e.g., 4 hours) post-administration. Liver and spleen are collected in pre-weighed tubes, weights determined, immediately snap frozen in liquid nitrogen and stored at −80° C. until processing for analysis.
For liver, approximately 50 mg is dissected for analyses in a 2 mL FastPrep tubes (MP Biomedicals, Solon OH). ¼″ ceramic sphere (MP Biomedicals) is added to each tube and 500 μL of Glo Lysis Buffer—GLB (Promega, Madison WI) equilibrated to room temperature is added to liver tissue. Liver tissues are homogenized with the FastPrep24 instrument (MP Biomedicals) at 2×6.0 m/s for 15 seconds. Homogenate is incubated at room temperature for 5 minutes prior to a 1:4 dilution in GLB and assessed using SteadyGlo Luciferase assay system (Promega). Specifically, 50 μL of diluted tissue homogenate is reacted with 50 μL of SteadyGlo substrate, shaken for 10 seconds followed by 5 minute incubation and then quantitated using a CentroXS^3 LB 960 luminometer (Berthold Technologies, Germany). The amount of protein assayed is determined by using the BCA protein assay kit (Pierce, Rockford IL). Relative luminescence units (RLU) are then normalized to total ug protein assayed. To convert RLU to ng luciferase a standard curve is generated with QuantiLum Recombinant Luciferase (Promega). […]

[2] = Determination of pKa of formulated lipids (TNS fluorescence assay in lipid nanoparticles); format: physicochemical
Experimental: As described elsewhere, the pKa of formulated cationic lipids is correlated with the effectiveness of LNPs for delivery of nucleic acids (see Jayaraman et al, Angewandte Chemie, International Edition (2012), 51(34), 8529-8533; Semple et al, Nature Biotechnology 28, 172-176 (2010)). The preferred range of pKa is ˜5 to ˜7. […] Lipid nanoparticles comprising cationic lipid/DSPC/cholesterol/PEG-lipid (50/10/38.5/1.5 mol %) in PBS at a concentration of 0.4 mM total lipid are prepared using the in-line process as described in Example 1. TNS is prepared as a 100 μM stock solution in distilled water. Vesicles are diluted to 24 μM lipid in 2 mL of buffered solutions containing, 10 mM HEPES, 10 mM MES, 10 mM ammonium acetate, 130 mM NaCl, where the pH ranged from 2.5 to 11. An aliquot of the TNS solution is added to give a final concentration of 1 μM and following vortex mixing fluorescence intensity is measured at room temperature in a SLM Aminco Series 2 Luminescence Spectrophotometer using excitation and emission wavelengths of 321 nm and 445 nm. A sigmoidal best fit analysis is applied to the fluorescence data and the pKa was measured as the pH giving rise to half-maximal fluorescence intensity.

[3] = cationic lipid formulated in LNP (cationic lipid/DSPC/cholesterol/PEG-lipid 50/10/38.5/1.5 mol %), TNS fluorescence, pH giving half-maximal fluorescence, Table 2
[4] = formulated cationic lipid in LNP, TNS assay, Table 4

Compound	Liver Luc @ 0.5 mg/kg (ng luc/g liver) [1] [ng luc/g liver]	pKa [2, 3]	pKa [2, 4]
CCCCCCCCC(CCCCCC)CN(CC(CCCCCC)CCCCCCCC)C(=O)CCCCN(C)C (stereo not shown) [Compound I-1]	206 ± 141	6.68	
CCCCCCCCC(CCCCCC)CN(CC(CCCCCC)CCCCCCCC)C(=O)CCCCCN(C)C (stereo not shown) [Compound I-2]		7.42	
CCCCCCCCC(CCCCCC)CN(CC(CCCCCC)CCCCCCCC)C(=O)CCCCN(CCO)CCO (stereo not shown) [Compound I-3]		6.49	
CCCCCCCCC(CCCCCC)CN(CC(CCCCCC)CCCCCCCC)C(=O)CCCCNC(C)C (stereo not shown) [Compound I-4]		8.15	
CCCCCCCCC(CCCCCC)CN(CC(CCCCCC)CCCCCCCC)C(=O)CCN(C)C (stereo not shown) [Compound I-5]	1417 ± 390	6.25	
CCCCCCCCC(CCCCCC)CN(CC(CCCCCC)CCCCCCCC)C(=O)CCCCCCCCN(C)C (stereo not shown) [Compound I-6]		7.15	
CCCCCCCCC(CCCCCC)CN(CC(CCCCCC)CCCCCCCC)C(=O)CCCCCCCN(C)C (stereo not shown) [Compound I-7]		7.23	
CCCCCCCCC(CCCCCC)CN(CCCCCCCCCN(C)C)CC(CCCCCC)CCCCCCCC (stereo not shown) [Compound I-8]	1761 ± 598		5.96
CCCCCCCCC(CCCCCC)CN(CCCCCCCCN(C)C)CC(CCCCCC)CCCCCCCC (stereo not shown) [Compound I-9]	341 ± 126		5.85
